{"source": "paper PMC10272180", "about": "“Ancient medicinal plant rosemary contains a highly efficacious and isoform-selective KCNQ potassium channel opener” (Communications Biology, 2023)", "key": {"[1]": {"biological_target": "T1, KCNQ2/5 (Homo sapiens, UniProt O43526+Q9NR82)", "T1 construct": "expressed in transfected cells; host or cells: Xenopus laevis oocytes co-injected with cRNAs", "assay": "TEVC of KCNQ2/5 heteromers expressed in Xenopus laevis oocytes", "format": "cell-based", "from_the_text": "(§1) We generated cRNA transcripts encoding human KCNQ1, 2, 3, and 5 (wild-type and mutant) by in vitro transcription using the mMessage mMachine kit (Thermo Fisher Scientific, Waltham, MA, USA) according to manufacturer’s instructions, after vector linearization, from cDNA sub-cloned into expression vectors (pTLNx and pXOOM) incorporating Xenopus laevis β-globin 5’ and 3’ UTRs flanking the coding region to enhance translation and cRNA stability. Mutant KCNQ cDNAs were generated by Genscript (Piscataway, NJ, USA) and cRNAs made as above. We injected defolliculated stage V and VI Xenopus laevis oocytes (Xenoocyte, Dexter, MI, USA) with KCNQ cRNAs (2–10 ng) and incubated the oocytes at 16 °C in ND96 oocyte storage solution containing penicillin and streptomycin, with daily washing, for 2–4 days prior to two-electrode voltage-clamp (TEVC) recording.\n(§2) We performed TEVC at room temperature using an OC-725C amplifier (Warner Instruments, Hamden, CT, USA) and pClamp10 software (Molecular Devices, Sunnyvale, CA, USA) 2–4 days after cRNA injection. We placed oocytes in a small-volume oocyte bath (Warner) and viewed them with a dissection microscope for cellular electrophysiology. We sourced chemicals from Sigma-Aldrich (St. Louis, MO, USA) and Combi-Blocks (San Diego, CA, USA). We studied effects of Salvia rosmarinus extracts and of compounds, solubilized directly in bath solution (in mM): 96 NaCl, 4 KCl, 1 MgCl2, 1 CaCl2, 10 HEPES (pH 7.6). We introduced extracts or compounds into the oocyte recording bath by gravity perfusion at a constant flow of 1 ml per minute for 3 min prior to recording. Pipettes were of 1-2 MΩ resistance when filled with 3 M KCl. We recorded currents in response to voltage pulses between −120 mV and +40 mV at 10 mV intervals from a holding potential of −80 mV, to yield current-voltage relationships and examine activation kinetics. We analyzed data using Clampfit (Molecular Devices) and Graphpad Prism software (GraphPad, San Diego, CA, USA), stating values as mean ± SEM. We plotted raw or normalized tail currents versus prepulse voltage and fitted with a single Boltzmann function:1 g=(A1−A2)/1+exp[V1/2−V/Vs]y+A2 where g is the normalized tail conductance, A1 is the initial value at -∞, A2 is the final value at +∞, V1/2 is the half-maximal voltage of activation and Vs the slope factor. We fitted activation and deactivation kinetics with single exponential functions."}, "[2]": {"biological_target": "KCNQ3*-R243A (Homo sapiens, UniProt O43525, A315T/R243A)", "assay": "TEVC of mutant KCNQ3*-R243A in oocytes", "format": "cell-based", "details": "100 µM", "from_the_text": "as §1\n(§3) We performed TEVC at room temperature using an OC-725C amplifier (Warner Instruments, Hamden, CT, USA) and pClamp10 software (Molecular Devices, Sunnyvale, CA, USA) 2–4 days after cRNA injection. […] We recorded currents in response to voltage pulses between −120 mV and +40 mV at 10 mV intervals from a holding potential of −80 mV, to yield current-voltage relationships and examine activation kinetics. We analyzed data using Clampfit (Molecular Devices) and Graphpad Prism software (GraphPad, San Diego, CA, USA), stating values as mean ± SEM. […]"}, "[3]": {"biological_target": "KCNQ3*-G244A (Homo sapiens, UniProt O43525, A315T/G244A)", "assay": "TEVC of mutant KCNQ3*-G244A in oocytes", "format": "cell-based", "details": "100 µM", "from_the_text": "as §1\nas §2, with “We plotted raw or normalized tail currents versus prepulse voltage and fitted with a single Boltzmann function:1 g=(A1−A2)/1+exp[V1/2−V/Vs]y+A2 where g is the normalized tail conductance, A1 is the initial value at -∞, A2 is the final value at +∞, V1/2 is the half-maximal voltage of activation and Vs the slope factor. We fitted activation and deactivation kinetics with single exponential functions.” left out"}, "[4]": {"biological_target": "KCNQ3*-G245A (Homo sapiens, UniProt O43525, A315T/G245A)", "assay": "TEVC of mutant KCNQ3*-G245A in oocytes", "format": "cell-based", "details": "100 µM", "from_the_text": "as §1, §3"}, "[5]": {"biological_target": "KCNQ3*-W265L (Homo sapiens, UniProt O43525, A315T/W265L)", "assay": "TEVC of mutant KCNQ3*-W265L in oocytes", "format": "cell-based", "from_the_text": "as §1\nas §2, with “We recorded currents in response to voltage pulses between −120 mV and +40 mV at 10 mV intervals from a holding potential of −80 mV, to yield current-voltage relationships and examine activation kinetics.” left out"}, "[6]": {"biological_target": "KCNQ3*-P211A (Homo sapiens, UniProt O43525, A315T/P211A)", "assay": "TEVC of mutant KCNQ3*-P211A in oocytes", "format": "cell-based", "from_the_text": "as §1, §2"}, "[7]": {"biological_target": "T2, KCNQ3* coexpressed with Danio rerio VSP (DrVSP) (Homo sapiens, UniProt O43525, A315T)", "T2 construct": "expressed in transfected cells; host or cells: Xenopus laevis oocytes", "assay": "TEVC of KCNQ3* coexpressed with DrVSP, PIP2 depletion at +120 mV", "format": "cell-based", "details": "5 µM", "from_the_text": "Under baseline conditions, binding of the […], lipid-derived signaling molecule phosphatidylinositol 4,5-bisphosphate (PIP2) to KCNQ3 (and other KCNQ isoforms) is required for efficient coupling of the voltage sensor to pore opening and thus voltage-dependent gating[22],[23]. […] Another strategy for PIP2 reduction is to express a voltage-sensitive phosphatase (VSP) that reduces PIP2 levels upon membrane depolarization. […]\nas §3"}, "[8]": {"details": "cited from earlier work"}}, "data": [{"smiles": "CC(C)c1cc2c(c(O)c1O)[C@@]1(C(=O)O)CCCC(C)(C)[C@@H]1CC2", "note": "[Carnosic acid, carnosic acid]", "values": [{"measurement": "V0.5 Normalized tail current", "setting": "[1]; 0.1 µM", "result": "-40.58 ± 1.11", "unit": "mV"}, {"measurement": "V0.5 Normalized tail current", "setting": "[1]; 1 µM", "result": "-44.54 ± 0.73", "unit": "mV"}, {"measurement": "V0.5 Normalized tail current", "setting": "[1]; 3 µM", "result": "-47.07 ± 0.55", "unit": "mV"}, {"measurement": "V0.5 Normalized tail current", "setting": "[1]; 10 µM", "result": "-46.44 ± 0.68", "unit": "mV"}, {"measurement": "V0.5 Normalized tail current", "setting": "[1]; 30 µM", "result": "-45.89 ± 0.76", "unit": "mV"}, {"measurement": "V0.5 Normalized tail current", "setting": "[1]; 100 µM", "result": "-46.50 ± 0.97", "unit": "mV"}, {"measurement": "EC50", "setting": "[1]; EC50 EM", "result": "4.76 ± 0.34", "unit": "µM"}, {"measurement": "EC50", "setting": "[1]; EC50 V0.5 Activation", "result": "0.74 ± 0.12", "unit": "µM"}, {"measurement": "Slope", "setting": "[2]", "result": "9.48 ± 0.54", "unit": "mV"}, {"measurement": "V0.5 Normalized tail current", "setting": "[2]", "result": "-64.93 ± 0.61", "unit": "mV"}, {"measurement": "Slope", "setting": "[3]", "result": "11.55 ± 1.94", "unit": "mV"}, {"measurement": "V0.5 Normalized tail current", "setting": "[3]", "result": "-97.68 ± 3.18", "unit": "mV"}, {"measurement": "carnosic acid effects compared with KCNQ3*", "setting": "[3]", "result": "indistinguishably"}, {"measurement": "Slope", "setting": "[4]", "result": "12.79 ± 4.65", "unit": "mV"}, {"measurement": "V0.5 Normalized tail current", "setting": "[4]", "result": "-129.4 ± 1.24", "unit": "mV"}, {"measurement": "V0.5 Normalized tail current", "setting": "[5]; 0.1 µM", "result": "-75.60 ± 1.02", "unit": "mV"}, {"measurement": "V0.5 Normalized tail current", "setting": "[5]; 1 µM", "result": "-86.19 ± 1.09", "unit": "mV"}, {"measurement": "V0.5 Normalized tail current", "setting": "[5]; 3 µM", "result": "-96.66 ± 1.64", "unit": "mV"}, {"measurement": "V0.5 Normalized tail current", "setting": "[5]; 10 µM", "result": "-105.3 ± 2.56", "unit": "mV"}, {"measurement": "V0.5 Normalized tail current", "setting": "[5]; 100 µM", "result": "-146.0 ± 1.92", "unit": "mV"}, {"measurement": "EC50", "setting": "[5]; EC50 EM", "result": "0.14 ± 0.03", "unit": "µM"}, {"measurement": "EC50", "setting": "[5]; EC50 V0.5 Activation", "result": "2.11 ± 0.09", "unit": "µM"}, {"measurement": "sensitivity in terms of potency versus KCNQ3*", "setting": "[5]; dose-response", "result": "approximately fivefold"}, {"measurement": "V0.5 Normalized tail current", "setting": "[6]; 0.1 µM", "result": "-55.16 ± 1.00", "unit": "mV"}, {"measurement": "V0.5 Normalized tail current", "setting": "[6]; 1 µM", "result": "-59.20 ± 1.17", "unit": "mV"}, {"measurement": "V0.5 Normalized tail current", "setting": "[6]; 3 µM", "result": "-61.55 ± 1.44", "unit": "mV"}, {"measurement": "V0.5 Normalized tail current", "setting": "[6]; 10 µM", "result": "-78.35 ± 1.93", "unit": "mV"}, {"measurement": "V0.5 Normalized tail current", "setting": "[6]; 30 µM", "result": "-98.23 ± 4.44", "unit": "mV"}, {"measurement": "V0.5 Normalized tail current", "setting": "[6]; 100 µM", "result": "-110.7 ± 3.83", "unit": "mV"}, {"measurement": "EC50", "setting": "[6]; EC50 EM", "result": "3.21 ± 0.21", "unit": "µM"}, {"measurement": "EC50", "setting": "[6]; EC50 V0.5 Activation", "result": "15.25 ± 0.07", "unit": "µM"}, {"measurement": "carnosic acid efficacy and potency compared with KCNQ3*", "setting": "[6]; dose-response", "result": "very similarly"}, {"measurement": "effect on DrVSP-induced KCNQ3* current decay", "setting": "[7]", "result": "reduced or prevented"}, {"measurement": "blood brain barrier crossing", "setting": "[8]", "result": "crosses the blood brain barrier"}]}]}
